Measurements published in ChEMBL document CHEMBL1201862, “PubChem BioAssay data set” (2004).
Activity calls are given as the source filed them.

Legend:
[1] = biological target: T1, Corticotropin-releasing factor receptor 2/Corticotropin-releasing factor-binding protein (Homo sapiens, UniProt P24387+Q13324); experiment: activators of CRF receptor 2 with binding protein – uHTS hits, confirmation (AID 602473); assay type: functional; details: read-out: EC50_Mean
T1 sequence (Q13324 whole entry): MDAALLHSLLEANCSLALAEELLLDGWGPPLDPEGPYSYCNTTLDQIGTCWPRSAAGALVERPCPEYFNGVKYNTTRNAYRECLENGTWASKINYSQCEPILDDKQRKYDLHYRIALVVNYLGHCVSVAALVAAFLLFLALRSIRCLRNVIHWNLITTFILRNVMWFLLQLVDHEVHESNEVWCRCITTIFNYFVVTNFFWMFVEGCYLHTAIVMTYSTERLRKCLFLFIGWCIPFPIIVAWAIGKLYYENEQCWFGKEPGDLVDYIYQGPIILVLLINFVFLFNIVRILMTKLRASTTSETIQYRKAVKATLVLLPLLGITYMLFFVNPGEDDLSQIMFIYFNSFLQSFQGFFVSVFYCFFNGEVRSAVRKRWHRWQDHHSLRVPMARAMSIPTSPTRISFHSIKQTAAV
T1 sequence (P24387 whole entry): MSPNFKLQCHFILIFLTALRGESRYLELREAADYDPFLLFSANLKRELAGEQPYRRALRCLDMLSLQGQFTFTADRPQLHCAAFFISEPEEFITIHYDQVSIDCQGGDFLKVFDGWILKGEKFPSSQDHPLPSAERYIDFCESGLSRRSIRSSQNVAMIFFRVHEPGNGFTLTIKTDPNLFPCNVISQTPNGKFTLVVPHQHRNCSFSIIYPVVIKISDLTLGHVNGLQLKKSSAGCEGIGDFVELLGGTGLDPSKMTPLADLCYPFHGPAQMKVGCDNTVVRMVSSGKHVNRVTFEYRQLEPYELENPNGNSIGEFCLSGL

[2] = cytotoxicity toward NIH3T3 fibroblasts, dose response, counter-screen, cell-based, ATP luminescence, mouse fibroblasts (AID 2010); assay type: functional;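 note: cells exposed to compound for about 90 hours before reading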
[3] = biological target: T1, Corticotropin-releasing factor receptor 2/Corticotropin-releasing factor-binding protein; experiment: Dose Response confirmation of uHTS hits for small molecule antagonists of the CRF-binding protein and CRF-R2 receptor complex.; assay type: functional; details: read-out: IC50_Mean
[4] = inhibitors of intracellular T. cruzi replication, confirmation, NIH3T3 host cells, beta-gal luminescence (AID 2044); assay type: functional, cell-based;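 note: intracellular parasites grown in NIH/3T3 mouse fibroblasts as host cells; luminescent beta-galactosidase reporter signal from transgenic T. cruzi replicating inside host cells; inhibitors lower the luminescence signal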
[5] = HEp-2 cell cytotoxicity, dose response, cytotoxicity control for RSV inhibitor project, HTS (AID 2410); assay type: functional; details: human respiratory syncytial virus
Cytochrome P450 1A2 = biological target: T2, Cytochrome P450 1A2 (Homo sapiens, UniProt P05177);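 note: PubChem cytochrome P450 panel assay, CYP1A2 panel member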
T2 sequence (P05177 whole entry): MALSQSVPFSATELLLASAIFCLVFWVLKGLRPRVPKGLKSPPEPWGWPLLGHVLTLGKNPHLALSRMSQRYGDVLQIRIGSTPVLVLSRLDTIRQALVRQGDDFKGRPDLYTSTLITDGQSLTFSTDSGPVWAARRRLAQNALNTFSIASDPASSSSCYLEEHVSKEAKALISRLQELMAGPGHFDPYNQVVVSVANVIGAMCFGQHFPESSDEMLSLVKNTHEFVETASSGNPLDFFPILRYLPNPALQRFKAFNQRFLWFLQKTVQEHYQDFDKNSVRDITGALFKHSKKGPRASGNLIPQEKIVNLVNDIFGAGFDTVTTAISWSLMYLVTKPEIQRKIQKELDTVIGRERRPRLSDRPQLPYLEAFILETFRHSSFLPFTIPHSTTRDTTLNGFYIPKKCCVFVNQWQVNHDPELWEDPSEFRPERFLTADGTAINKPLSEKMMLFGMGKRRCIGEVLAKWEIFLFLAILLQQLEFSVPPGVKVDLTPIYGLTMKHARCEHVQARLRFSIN

Cytochrome P450 3A4 = Cytochrome P450 3A4 (Homo sapiens, UniProt P08684);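 note: CYP3A4 tested as one member of a cytochrome P450 panel screen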
Sequence of Cytochrome P450 3A4 (P08684 whole entry): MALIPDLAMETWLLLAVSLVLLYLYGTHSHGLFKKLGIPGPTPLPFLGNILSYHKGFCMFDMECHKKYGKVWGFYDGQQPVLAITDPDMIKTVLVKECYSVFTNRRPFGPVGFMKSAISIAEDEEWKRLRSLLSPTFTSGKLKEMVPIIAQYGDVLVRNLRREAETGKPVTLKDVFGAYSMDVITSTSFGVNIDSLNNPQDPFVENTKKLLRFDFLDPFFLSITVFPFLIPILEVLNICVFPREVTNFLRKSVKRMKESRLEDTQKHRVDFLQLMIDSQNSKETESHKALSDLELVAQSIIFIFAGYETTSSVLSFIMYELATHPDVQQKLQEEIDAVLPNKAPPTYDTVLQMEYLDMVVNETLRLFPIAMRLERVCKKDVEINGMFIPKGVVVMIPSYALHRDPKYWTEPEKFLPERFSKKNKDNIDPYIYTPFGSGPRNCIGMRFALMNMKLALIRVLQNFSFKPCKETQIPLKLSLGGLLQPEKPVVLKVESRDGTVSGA

Protein skinhead-1 = biological target: T3, Protein skinhead-1 (Caenorhabditis elegans, UniProt P34707); assay type: functional
T3 sequence (P34707 whole entry): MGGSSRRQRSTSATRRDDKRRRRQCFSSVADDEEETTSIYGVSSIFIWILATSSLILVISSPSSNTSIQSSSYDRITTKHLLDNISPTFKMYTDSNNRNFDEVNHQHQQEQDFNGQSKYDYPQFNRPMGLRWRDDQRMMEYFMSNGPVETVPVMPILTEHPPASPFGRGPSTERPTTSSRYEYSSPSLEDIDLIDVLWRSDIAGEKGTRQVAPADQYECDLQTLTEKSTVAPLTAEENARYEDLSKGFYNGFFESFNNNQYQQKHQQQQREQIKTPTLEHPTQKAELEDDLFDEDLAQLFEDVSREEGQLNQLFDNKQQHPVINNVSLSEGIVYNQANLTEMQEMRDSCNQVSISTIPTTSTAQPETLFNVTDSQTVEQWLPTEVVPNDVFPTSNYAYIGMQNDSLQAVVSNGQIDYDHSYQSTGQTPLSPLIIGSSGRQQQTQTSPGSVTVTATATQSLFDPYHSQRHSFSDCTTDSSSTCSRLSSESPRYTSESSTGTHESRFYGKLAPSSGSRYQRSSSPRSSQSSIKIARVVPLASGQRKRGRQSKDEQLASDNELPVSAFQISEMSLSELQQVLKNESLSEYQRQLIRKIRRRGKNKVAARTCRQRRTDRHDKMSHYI

H4 = experiment: Luminescence Cell-Based Dose Response HTS to Identify Activators of 5'UTR Stem-Loop Driven Prion Protein mRNA Translation in H4 Neuroglioblastoma Cells. [Related pubchem assays: 1829 (Project Summary), 1814 (Primary HTS)]; assay type: functional; details: Homo sapiens
[6] = Luminescence Cell-Based Dose Response HTS to Identify Activators of Luciferase Translation or Activity in H4 […] Cells. [Related pubchem assays: 1829 (Project Summary), 1814 (Primary HTS)]; assay type: functional
Cytochrome P450 2D6 = Cytochrome P450 2D6 (Homo sapiens, UniProt P10635);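 note: CYP2D6 member of a cytochrome P450 panel assay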
Sequence of Cytochrome P450 2D6 (P10635 whole entry): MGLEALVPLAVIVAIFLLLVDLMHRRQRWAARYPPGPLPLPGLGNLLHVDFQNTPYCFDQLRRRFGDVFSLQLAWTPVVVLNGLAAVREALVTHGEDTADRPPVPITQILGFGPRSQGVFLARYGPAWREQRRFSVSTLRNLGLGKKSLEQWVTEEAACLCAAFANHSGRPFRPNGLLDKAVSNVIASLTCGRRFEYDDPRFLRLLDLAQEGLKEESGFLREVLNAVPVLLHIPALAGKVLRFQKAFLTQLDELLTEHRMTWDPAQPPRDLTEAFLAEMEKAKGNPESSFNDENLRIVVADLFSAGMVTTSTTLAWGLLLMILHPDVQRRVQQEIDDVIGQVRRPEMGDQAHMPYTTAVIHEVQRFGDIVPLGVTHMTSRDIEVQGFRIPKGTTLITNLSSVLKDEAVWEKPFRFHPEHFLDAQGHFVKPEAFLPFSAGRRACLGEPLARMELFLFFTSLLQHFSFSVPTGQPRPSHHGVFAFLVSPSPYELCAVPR

[7] = Shn3 3'UTR reporter inhibitors, dose response, cell-based, Clone20 osteoblasts, firefly luciferase, cherry-picked (AID 624132); assay type: functional;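 note: firefly luciferase luminescence from reporter carrying the Shn3 3'UTR in osteoblasts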

O=C(Nc1ccccc1)c1sccc1Oc1ccc([N+](=O)[O-])cc1F
EC50 [1]: > 53 µM (inactive)
EC50 [2]: > 60 µM (not active)
IC50 [3]: > 47.1 µM (inactive)
EC50 [4]: 1.42 µM (active)

O=C(Nc1nc(-c2ccc(Cl)cc2)cs1)NC1CCCCC1
CC50 [5]: 20.3 µM (active)

CCC(C)C1N=C(c2ccccc2)c2cc(Cl)ccc2N(CC(=O)NCc2ccco2)C1=O (centres undefined)
EC50 [1]: > 53 µM (inactive)
IC50 [3]: > 47.1 µM (inactive)

CCC/C(=N\NC(=O)C1CC1)c1ccccc1
EC50 [1]: > 53 µM (inactive)
IC50 [3]: > 47.1 µM (inactive)

CCCC[C@@H]1C[C@H]1C(NC(=O)c1ccccc1)c1ccccc1C(F)(F)F (some centres undefined)
AC50 (Cytochrome P450 1A2): 10 µM (inconclusive)
AC50 (Cytochrome P450 3A4): 3.16 µM (inconclusive)

Clc1ccc2nc(N3CCCCC3)sc2c1
IC50 (Protein skinhead-1): 29.2 µM (active)

Cc1ccccc1NC(=O)Cc1nc(COC(=O)c2cccc(O)c2)cs1
IC50 (Protein skinhead-1): > 100 µM (inactive)

Cc1ccnc(NC(=O)c2ccc(NC(=O)c3ccco3)cc2)c1
EC50 (H4): 11.9 µM (active)
EC50 [6]: 1.37 µM (active)

O=C(Nc1ccc2c(c1)Cc1ccccc1-2)c1ccco1
IC50 (Protein skinhead-1): > 100 µM (inactive)

c1ccc(-c2csc(N3CCN(c4ccccn4)CC3)n2)cc1
IC50 (Protein skinhead-1): 26.5 µM (active)

CCOC(=O)c1ccc(Nc2nnc(C(C)(C)C)c(O)n2)cc1
IC50 (Protein skinhead-1): > 100 µM (inactive)

COC(=O)c1sccc1-c1ccc(C(N)=O)o1
CC50 [5]: 44 µM (active)

CCOc1nc(C)ccc1-c1noc(-c2ccccn2)n1
EC50 [1]: > 53 µM (inactive)
IC50 [3]: > 47.1 µM (inactive)

CCCN1Cc2cccc(C(=O)NCc3cccs3)c2C1=O
EC50 [1]: > 53 µM (inactive)
IC50 [3]: > 47.1 µM (inactive)

N#C/C(=C(/O)COC(=O)COc1cccc(Br)c1)c1nc2ccccc2[nH]1
EC50 [1]: > 53 µM (inactive)
IC50 [3]: > 47.1 µM (inactive)

Cc1ccc(C2(C)NC(=O)N(CC(=O)Nc3ccc(-c4nc5ccc(C)cc5s4)cc3)C2=O)cc1 (centres undefined)
CC50 [5]: 41.5 µM (active)

COCCNC(=O)CC(c1ccccc1)c1ccccc1
IC50 (Protein skinhead-1): > 100 µM (inactive)

O=C(COC(=O)C12CC3CC(CC(O)(C3)C1)C2)Nc1cccc(Br)c1
IC50 (Protein skinhead-1): > 100 µM (inactive)

c1cncc(-c2nn3c(Cn4nnc5ccccc54)nnc3s2)c1
CC50 [5]: > 50 µM (active)

O=C(Nc1ccc(OC(F)F)c(Cl)c1)c1cccc(OC(F)F)c1
IC50 (Protein skinhead-1): 48.3 µM (active)

CN1CCN(c2ncc3nc(-c4cc(F)cc(F)c4)c(=O)n(Cc4cccs4)c3n2)CC1
AC50 (Cytochrome P450 1A2): 6.31 µM (inconclusive)
AC50 (Cytochrome P450 3A4): 25.1 µM (inconclusive)

O=C(N/N=C/c1c[nH]c2ccccc12)c1ccn(Cc2ccc(Cl)cc2Cl)n1
AC50 (Cytochrome P450 3A4): 3.55 µM (inconclusive)
AC50 (Cytochrome P450 2D6): 7.08 µM (inconclusive)

C=CCOc1nc2c(c(=O)n(Cc3ccc(Cl)c(Cl)c3)c(=O)n2C)n1C
EC50 [1]: > 53 µM (inactive)
IC50 [3]: > 47.1 µM (inactive)

CC1CCN(C(=O)c2ccc(COc3ccccc3Cl)o2)CC1
AC50 (Cytochrome P450 3A4): 31.6 µM (inconclusive)
AC50 (Cytochrome P450 2D6): 28.2 µM (inconclusive)

Cc1nc2cnc(N(C)C)nc2n(Cc2cccs2)c1=O
AC50 (Cytochrome P450 3A4): 3.16 µM (inconclusive)
AC50 (Cytochrome P450 2D6): 12.6 µM (inconclusive)

c1ccc(CNC2=NN=C(c3ccccc3)CS2)cc1
EC50 (H4): 24.2 µM (active)
EC50 [6]: 0.293 µM (active)

O=C(c1csnn1)N1CCC[C@@]2(CCN(c3ccccn3)C2)C1
AC50 (Cytochrome P450 3A4): 6.31 µM (inconclusive)
AC50 (Cytochrome P450 2D6): 12.6 µM (inconclusive)

Clc1cccc(CSc2ncn(-c3ccccc3)n2)c1
IC50 (Protein skinhead-1): 24.7 µM (active)

O=C(c1ccc(NS(=O)(=O)c2cccc([N+](=O)[O-])c2)cc1)N1CCCCCC1
EC50 [1]: > 53 µM (inactive)
IC50 [3]: > 47.1 µM (inactive)

O=C(C(c1ccccc1)c1ccccc1)N1CCN(CCN2C(=O)c3cccc4cccc(c34)C2=O)CC1
EC50 [1]: > 53 µM (inactive)
IC50 [3]: > 47.1 µM (inactive)

CC(=O)Nc1ccc(OCC[n+]2cccc(C(N)=O)c2)cc1
EC50 [1]: > 53 µM (inactive)
IC50 [3]: > 47.1 µM (inactive)

O=C(Nc1ccc(N2CCCCC2)cc1)c1ccc2ccccc2n1
IC50 (Protein skinhead-1): > 100 µM (inactive)

O=C(Nc1ccccc1)N1CC[C@@]2(CCCN(C(=O)Oc3ccccc3)C2)C1
AC50 (Cytochrome P450 1A2): 15.8 µM (inconclusive)
AC50 (Cytochrome P450 3A4): 25.1 µM (inconclusive)

COc1ccc(N2C(=O)CC(Sc3nc(C)cc(C)c3C#N)C2=O)cc1 (centres undefined)
EC50 (H4): 25.4 µM (active)
EC50 [6]: 14.6 µM (active)

COC(=O)c1sc2ccccc2c1-n1cccc1C(=O)C(=O)Nc1ccc(Cl)cc1
AC50 (Cytochrome P450 1A2): 2.82 µM (inconclusive)
AC50 (Cytochrome P450 3A4): 14.1 µM (inconclusive)

OCc1cccc(-c2csc(C(O)(c3ccccc3)C(F)(F)F)n2)c1 (centres undefined)
IC50 (Protein skinhead-1): > 100 µM (inactive)

Cc1cc(C)c(S(=O)(=O)n2ccc3ccccc32)c(C)c1
EC50 [1]: > 53 µM (inactive)
IC50 [3]: > 47.1 µM (inactive)

COc1ccc(CN(C(=O)CSc2nnc(-c3ccc(F)cc3)o2)c2ccc(F)cc2)cc1
AC50 [7]: 43.4 µM (active)

Cc1nn2c(N)c(-c3ccccc3)cnc2c1-c1ccc(Cl)cc1
EC50 [1]: > 53 µM (inactive)
IC50 [3]: > 47.1 µM (inactive)

Clc1ccccc1-c1nnc(-c2ccccc2Cl)o1
IC50 (Protein skinhead-1): 53.8 µM (inactive)

Cc1c(C)c2c(c(C)c1O)CC[C@@](C)(C(=O)O)O2
AC50 (Cytochrome P450 1A2): 20 µM (inconclusive)
AC50 (Cytochrome P450 3A4): 12.6 µM (inconclusive)

COC(C(=O)Nc1ccc(F)cc1)c1ccccc1 (centres undefined)
EC50 [1]: > 53 µM (inactive)
IC50 [3]: > 47.1 µM (inactive)
